Data reported in patent US4683291A, “Platelet binding inhibitors” (Scripps Clinic and Research Foundation, priority 1985, dated 1987).
Non-standard residues stand in square brackets, D forms with d. Residues, ends and D or L forms follow the SMILES beside them. No end group written: not given here.

Biological target: T1, platelet receptor, the GPIIb/IIIa complex (Homo sapiens, UniProt P05106+P08514)
T1 construct: Platelets were isolated from normal platelet-rich plasma and washed by the albumin density gradient technique; endogenous in cells; host or cells: washed platelets from normal platelet-rich plasma, thrombin-stimulated
Test: Inhibition of 125I-fibrinogen binding to thrombin-stimulated washed platelets
Conditions: fibrinogen-platelet binding; read-out: IC50
Experimental: Peptides were stored in the lyophilized state and dissolved in distilled water immediately before use. One-tenth volume of 10x modified Tyrode buffer was added before mixing with the platelet suspension. Platelets were isolated from normal platelet-rich plasma and washed by the albumin density gradient technique. Fibrinogen was purified following precipitation with glycine or polyethylene glycol 1000, and radiolabeled with ^125 I using Iodogen (Pierce). […] In each experimental mixture, platelets in modified Tyrode buffer were stimulated with human alpha-thrombin at 22°-25° C. for 10 minutes (3.125×10^11 platelets/L and 0.25 NIHU/ml of thrombin). Hirudin (Sigma) was then added at a 25-fold excess (V/V) for 5 minutes before the addition of ^125 I-fibrinogen and the peptide was then tested. After these additions, the final platelet count in the mixture was 1×10^11 /L, and fibrinogen was 0.176 micromolar. Separation of bound from free ligand was achieved by centrifuging 50 microliters of the mixture through 200 microliters of 20% sucrose at 12,000 g for 4 minutes. The platelet pellet was separated from the rest of the mixture, and the platelet-bound radioactivity was then determined. Non-specific binding was measured in mixtures containing a 75-fold excess of unlabeled fibrinogen. […] Each peptide was tested at six different concentrations, and the IC50 was derived from a plot of residual fibrinogen binding versus log of peptide concentration.

“KRKRKRKRRGDV [Lys--Arg--Lys--Arg--Lys--Arg--Lys--Arg--Arg--Gly--Asp--Val]” showed an IC50 of 0.4 µM.

Same assay, conditions: published peptides; read-out: IC50

Molecule HHLGGAKQAGDV [reference compound] has an IC50 of 48 to 83 µM.

Same assay, conditions: read-out: Typical IC50 (micromolar) IC50

In order of falling IC50:
1. HHLGGAKQRGDV [His--His--Leu--Gly--Gly--Ala--Lys--Gln--Arg--Gly--Asp--Val]  14.5 µM
2. HHLGGKKQRGDV [His--His--Leu--Gly--Gly--Lys--Lys--Gln--Arg--Gly--Asp--Val]  13.2 µM
3. HHLRGKKQRGDV [His--His--Leu--Arg--Gly--Lys--Lys--Gln--Arg--Gly--Asp--Val]  11.2 µM
4. HHLGGRKQRGDV [His--His--Leu--Gly--Gly--Arg--Lys--Gln--Arg--Gly--Asp--Val]  6.3 µM
5. HHLRGRKQRGDV [His--His--Leu--Arg-- Gly--Arg--Lys--Gln--Arg--Gly--Asp--Val]  6.2 µM
6. HHKRKRKQRGDS [His--His--Lys--Arg--Lys--Arg--Lys--Gln--Arg--Gly--Asp--Ser]  6.2 µM
7. HHLGRRKQRGDV [His--His--Leu--Gly--Arg--Arg--Lys--Gln--Arg--Gly--Asp--Val]  5.4 µM
8. HHLRKRKQRGDV [His--His--Leu--Arg--Lys--Arg--Lys--Gln--Arg--Gly--Asp--Val]  4.4 µM
9. KKKKKKKKRGDV [Lys--Lys--Lys--Lys--Lys--Lys--Lys--Lys--Arg--Gly--Asp--Val]  4.1 µM
10. HHKRKRKQRGDV [His--His--Lys--Arg--Lys--Arg--Lys--Gln--Arg--Gly--Asp--Val]  3.3 µM
11. HHKRKRKRRGDS [His--His--Lys--Arg--Lys--Arg--Lys--Arg--Arg--Gly--Asp--Ser]  3.1 µM
12. CC(C)[C@H](NC(=O)[C@H](CC(=O)O)NC(=O)CNC(=O)[C@H](CCCNC(=N)N)NC(=O)[C@H](CCC(N)=O)NC(=O)[C@H](CCCCN)NC(=O)[C@H](CCCNC(=N)N)NC(=O)CNC(=O)CNC(=O)[C@@H](C)NC(=O)[C@H](Cc1c[nH]cn1)NC(=O)[C@@H](N)Cc1c[nH]cn1)C(=O)O [His--His--D-Ala--Gly--Gly--Arg--Lys--Gln--Arg--Gly--Asp--Val] (H-HH[dA]GGRKQRGDV-OH)  2.8 µM
13. CC(C)[C@H](NC(=O)[C@H](CC(=O)O)NC(=O)CNC(=O)[C@H](CCCNC(=N)N)NC(=O)[C@H](CCC(N)=O)NC(=O)[C@H](CCCCN)NC(=O)[C@H](CCCNC(=N)N)NC(=O)[C@H](CCCCN)NC(=O)[C@H](CCCNC(=N)N)NC(=O)[C@@H](C)NC(=O)[C@H](Cc1c[nH]cn1)NC(=O)[C@@H](N)Cc1c[nH]cn1)C(=O)O [His--His--D-Ala--Arg--Lys--Arg--Lys--Gln--Arg--Gly--Asp--Val] (H-HH[dA]RKRKQRGDV-OH)  2.2 µM
14. HHKKKKKKRGDV [His--His--Lys--Lys--Lys--Lys--Lys--Lys--Arg--Gly--Asp--Val]  1.6 µM
15. HHRRRRRRRGDV [His--His--Arg--Arg--Arg--Arg--Arg--Arg--Arg--Gly--Asp--Val]  1.3 µM
16. RRRRRRRRRGDV [Arg--Arg--Arg--Arg--Arg--Arg--Arg--Arg--Arg--Gly--Asp--Val]  0.2 µM

Biological target: T1, platelet receptor, the GPIIb/IIIa complex
Test: not given
Conditions: increasing fibrinogen concentrations; earlier findings; cited from earlier work

In the case of “Gly-Pro-Arg-Pro (GPRP; printed: Gly-Pro-Arg-Pro)”, the “inhibitory effect on increasing the fibrinogen concentration” value is listed as “increase with increasing fibrinogen concentrations”.
